Laboratory results as given in patent US5624950A, “Perhydroisoindole derivatives as substance P antagonists” (Rhone-Poulenc Rorer S.A., priority 1993, dated 1997).

System: capillary permeability brought about by septide (substance P agonist)
Test: inhibition of the increase of capillary permeability brought about by septide
Format: in vivo
Settings: Cavia porcellus, guinea pig, septide-induced capillary permeability
From the text: The study of certain isoindole derivatives of general formula (I) in the technique of A. Saria et al., Arch.

`COc1ccccc1[C@H](C)C(=O)N1C[C@H]2C[C@H](C)C[C@](O)(c3ccccc3OC)[C@H]2C1` (relative stereo) [Example 1, (3aR*,4R*,6S*,7aS*)-4-(2-methoxyphenyl)-2-[2-(S)-(2-methoxyphenyl)propionyl]-6-methyl-4-perhydroisoindolol] gave an ED50 (iv) of 0.07 mg/kg and an ED50 (po) of 3 to 10 mg/kg.
